ChEMBL document CHEMBL6182900, “Discovery of potent focal adhesion kinase (FAK) inhibitor A8 with enhanced antitumor activity” (Eur J Med Chem, 2025)

What was measured:
[1] = tested on: A549; test: Antitumor activity against human A549 cells xenografted in mouse model assessed as tumor growth inhibition at 50 mg/kg, po administered for 5 days and measured after 2 days relative to control; settings: 168 h, read-out: TGI
[2] = tested on: SK-OV-3; test: Antitumor activity against human SK-OV-3 cells xenografted in mouse model assessed as tumor growth inhibition at 25 mg/kg co-administered with paclitaxel as twice daily dose for 5 days and measured after 2 days break relative to control; settings: SK-OV-3, 168 h, read-out: TGI
[3] = tested on: SK-OV-3; test: Antitumor activity against human SK-OV-3 cells xenografted in mouse model assessed as tumor growth inhibition at 25 mg/kg administered twice daily for 5 days and measured after 2 days break relative to control; format: functional; settings: SK-OV-3, 168 h, time 7 day, read-out: TGI
[4] = in vitro; settings: human, liver microsomes
Description: Metabolic stability in human liver microsomes assessed as intrinsic clearance preincubated for 5 mins followed by NADPH addition and measured after 60 mins by LC-MS/MS analysis

[5] = target: Cytochrome P450 2C9 (Homo sapiens, UniProt P11712); test: Inhibition of CYP2C9 in human liver microsomes in presence of NADPH by LC-MS/MS analysis; format: ADME, Microsome
Cytochrome P450 2C9, sequence (P11712 whole entry): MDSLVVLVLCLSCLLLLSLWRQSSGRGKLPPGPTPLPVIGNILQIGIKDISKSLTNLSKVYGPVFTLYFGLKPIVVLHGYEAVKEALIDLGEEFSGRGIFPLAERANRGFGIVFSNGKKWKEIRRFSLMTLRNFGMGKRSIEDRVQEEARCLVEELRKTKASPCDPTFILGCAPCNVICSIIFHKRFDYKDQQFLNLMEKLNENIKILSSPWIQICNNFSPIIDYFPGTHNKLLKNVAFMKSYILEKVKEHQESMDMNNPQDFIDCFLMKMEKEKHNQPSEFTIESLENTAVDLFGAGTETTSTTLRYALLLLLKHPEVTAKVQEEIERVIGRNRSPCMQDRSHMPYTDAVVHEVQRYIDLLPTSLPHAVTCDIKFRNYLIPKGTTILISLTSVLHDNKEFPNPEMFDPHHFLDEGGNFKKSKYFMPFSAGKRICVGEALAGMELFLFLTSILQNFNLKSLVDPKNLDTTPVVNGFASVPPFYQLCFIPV

[6] = target: Cytochrome P450 3A4 (Homo sapiens, UniProt P08684); test: Inhibition of CYP3A4 in human liver microsomes in presence of NADPH by LC-MS/MS analysis; format: ADME, Microsome
Cytochrome P450 3A4, sequence (P08684 whole entry): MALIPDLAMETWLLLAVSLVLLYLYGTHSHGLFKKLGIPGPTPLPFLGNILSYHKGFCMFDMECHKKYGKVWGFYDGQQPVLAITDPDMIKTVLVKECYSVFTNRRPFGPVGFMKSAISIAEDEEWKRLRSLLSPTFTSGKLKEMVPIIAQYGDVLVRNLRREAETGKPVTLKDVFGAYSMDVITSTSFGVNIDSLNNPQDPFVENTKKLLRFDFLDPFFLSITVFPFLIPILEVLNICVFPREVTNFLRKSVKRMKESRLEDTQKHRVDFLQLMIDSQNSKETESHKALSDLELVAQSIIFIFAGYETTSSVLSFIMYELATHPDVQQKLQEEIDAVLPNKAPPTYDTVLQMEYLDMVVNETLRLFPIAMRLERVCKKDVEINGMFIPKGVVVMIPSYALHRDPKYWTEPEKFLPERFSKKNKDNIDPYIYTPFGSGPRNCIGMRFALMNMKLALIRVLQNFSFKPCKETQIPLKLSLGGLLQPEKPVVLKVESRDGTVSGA

[7] = target: Cytochrome P450 2D6 (Homo sapiens, UniProt P10635); test: Inhibition of CYP2D6 in human liver microsomes in presence of NADPH by LC-MS/MS analysis; format: ADME, Microsome
Cytochrome P450 2D6, sequence (P10635 whole entry): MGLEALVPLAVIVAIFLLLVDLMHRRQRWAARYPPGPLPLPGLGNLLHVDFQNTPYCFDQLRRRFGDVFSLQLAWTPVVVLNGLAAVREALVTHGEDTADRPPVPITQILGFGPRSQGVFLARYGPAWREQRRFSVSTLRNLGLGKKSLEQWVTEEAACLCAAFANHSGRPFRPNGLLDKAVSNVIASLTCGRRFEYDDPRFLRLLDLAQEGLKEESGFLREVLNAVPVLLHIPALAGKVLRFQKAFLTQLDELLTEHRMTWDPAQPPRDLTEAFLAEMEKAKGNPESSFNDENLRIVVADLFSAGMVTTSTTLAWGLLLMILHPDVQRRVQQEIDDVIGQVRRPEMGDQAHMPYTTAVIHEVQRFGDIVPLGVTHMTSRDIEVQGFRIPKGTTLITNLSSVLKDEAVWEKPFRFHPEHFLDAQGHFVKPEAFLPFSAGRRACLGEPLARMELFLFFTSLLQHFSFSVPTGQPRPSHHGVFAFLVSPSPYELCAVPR

[8] = target: T1, Cytochrome P450 1A2 (Homo sapiens, UniProt P05177); test: Inhibition of CYP1A2 in human liver microsomes in presence of NADPH by LC-MS/MS analysis; format: ADME, Microsome
T1 sequence (P05177 whole entry): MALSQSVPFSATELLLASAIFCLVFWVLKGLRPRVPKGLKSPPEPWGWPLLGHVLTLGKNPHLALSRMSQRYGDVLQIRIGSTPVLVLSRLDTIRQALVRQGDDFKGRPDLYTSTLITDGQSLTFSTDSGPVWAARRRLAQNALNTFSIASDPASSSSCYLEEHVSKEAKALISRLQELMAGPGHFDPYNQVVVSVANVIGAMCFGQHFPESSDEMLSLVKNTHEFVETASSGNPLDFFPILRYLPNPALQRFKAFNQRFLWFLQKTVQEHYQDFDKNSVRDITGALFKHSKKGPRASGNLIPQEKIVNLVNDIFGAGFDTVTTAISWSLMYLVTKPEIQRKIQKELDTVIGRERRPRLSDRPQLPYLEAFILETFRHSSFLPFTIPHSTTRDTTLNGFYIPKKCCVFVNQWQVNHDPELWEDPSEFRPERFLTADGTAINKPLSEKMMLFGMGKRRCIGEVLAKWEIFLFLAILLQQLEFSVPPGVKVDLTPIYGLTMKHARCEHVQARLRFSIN

[9] = target: Cytochrome P450 2C19 (Homo sapiens, UniProt P33261); test: Inhibition of CYP2C19 in human liver microsomes in presence of NADPH by LC-MS/MS analysis; format: ADME, Microsome
Cytochrome P450 2C19, sequence (P33261 whole entry): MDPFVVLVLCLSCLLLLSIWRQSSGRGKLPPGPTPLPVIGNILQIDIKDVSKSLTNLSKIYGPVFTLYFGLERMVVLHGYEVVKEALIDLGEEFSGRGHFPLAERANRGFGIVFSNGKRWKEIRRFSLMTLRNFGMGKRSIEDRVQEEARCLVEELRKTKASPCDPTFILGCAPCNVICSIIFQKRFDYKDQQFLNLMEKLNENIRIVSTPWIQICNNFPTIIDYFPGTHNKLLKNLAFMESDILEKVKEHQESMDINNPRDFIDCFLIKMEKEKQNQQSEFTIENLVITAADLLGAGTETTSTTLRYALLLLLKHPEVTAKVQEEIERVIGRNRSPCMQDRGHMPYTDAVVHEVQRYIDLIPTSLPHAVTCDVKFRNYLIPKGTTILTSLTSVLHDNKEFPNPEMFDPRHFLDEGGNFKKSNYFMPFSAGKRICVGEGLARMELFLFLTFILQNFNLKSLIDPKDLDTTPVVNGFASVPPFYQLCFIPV

[10] = tested on: SK-OV-3; test: Antitumor activity against human SK-OV-3 cells xenografted in mouse model assessed as tumor growth inhibition at 4 mg/kg, ip administered as weekly dose relative to control; format: functional; settings: read-out: TGI
[11] = target: Focal adhesion kinase 1 (Homo sapiens, UniProt Q05397); test: Inhibition of FAK (unknown origin) by HTRF assay
Focal adhesion kinase 1, sequence (Q05397 whole entry): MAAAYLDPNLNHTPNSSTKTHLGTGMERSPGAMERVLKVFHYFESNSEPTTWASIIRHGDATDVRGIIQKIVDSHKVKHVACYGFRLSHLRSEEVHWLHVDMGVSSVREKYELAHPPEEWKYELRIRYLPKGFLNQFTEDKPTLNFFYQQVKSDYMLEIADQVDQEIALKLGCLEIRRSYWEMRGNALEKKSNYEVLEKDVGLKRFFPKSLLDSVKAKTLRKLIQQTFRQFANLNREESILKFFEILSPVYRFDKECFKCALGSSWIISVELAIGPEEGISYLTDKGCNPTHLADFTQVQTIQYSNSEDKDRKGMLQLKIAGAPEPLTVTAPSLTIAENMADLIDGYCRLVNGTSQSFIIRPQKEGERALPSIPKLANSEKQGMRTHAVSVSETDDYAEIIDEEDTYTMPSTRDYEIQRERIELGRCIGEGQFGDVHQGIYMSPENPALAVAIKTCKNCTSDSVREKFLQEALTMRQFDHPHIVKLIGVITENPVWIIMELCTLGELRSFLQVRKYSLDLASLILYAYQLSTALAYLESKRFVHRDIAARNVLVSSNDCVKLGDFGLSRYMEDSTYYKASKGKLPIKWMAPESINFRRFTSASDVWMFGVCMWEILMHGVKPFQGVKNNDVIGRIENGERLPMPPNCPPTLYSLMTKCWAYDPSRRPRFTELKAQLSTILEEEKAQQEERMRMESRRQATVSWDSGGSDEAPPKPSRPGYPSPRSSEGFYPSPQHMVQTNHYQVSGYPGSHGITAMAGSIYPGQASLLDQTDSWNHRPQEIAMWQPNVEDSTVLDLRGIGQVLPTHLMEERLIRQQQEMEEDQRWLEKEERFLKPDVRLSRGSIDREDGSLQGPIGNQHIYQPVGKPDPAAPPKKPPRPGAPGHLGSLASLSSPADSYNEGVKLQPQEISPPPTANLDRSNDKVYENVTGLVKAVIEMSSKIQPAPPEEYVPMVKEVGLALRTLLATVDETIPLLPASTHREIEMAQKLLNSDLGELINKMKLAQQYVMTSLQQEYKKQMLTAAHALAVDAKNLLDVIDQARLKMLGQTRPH

C#Cc1cccc(Nc2ncnc3cc(OCCOC)c(OCCOC)cc23)c1 [ERLOTINIB]
inhibition in vivo at 50 mg/kg [1]: 47.4%

CNC(=O)c1ccc(Nc2ncc(C(F)(F)F)c(NCc3nccnc3N(C)S(C)(=O)=O)n2)cc1 [DEFACTINIB]
inhibition in vivo at 50 mg/kg [1]: 40.7% | inhibition in vivo at 25 mg/kg [2]: 74.7% | inhibition in vivo at 25 mg/kg [3]: 53.9%

O=C(O)Cc1ccccc1Nc1c(Cl)cccc1Cl [DICLOFENAC]
microsomal CLint at 1 h [4]: 232 µL/min/mg

CNC(=O)c1ccccc1Nc1nc(Nc2ccc(OCCF)cc2)ncc1Br
IC50 [5]: 22.5 µM | IC50 [6]: > 50 µM | IC50 [7]: > 50 µM | IC50 [8]: 26.6 µM | IC50 [9]: 36.2 µM

CC(=O)O[C@H]1C(=O)[C@@]2(C)[C@H]([C@H](OC(=O)c3ccccc3)[C@]3(O)C[C@H](OC(=O)[C@H](O)[C@@H](NC(=O)c4ccccc4)c4ccccc4)C(C)=C1C3(C)C)[C@]1(OC(C)=O)CO[C@@H]1C[C@@H]2O [PACLITAXEL]
inhibition in vivo at 4 mg/kg [10]: 55.3%

CC(=O)Nc1ccc(Nc2nc(Nc3ccc(NC(=O)CCNC(=O)c4ccc(F)nc4)cc3)ncc2Br)c(NC(C)=O)c1
IC50 [11]: 0.0113 µM
